Test system: GA-primed murine splenocytes
Experiment: Tolerance method for assessing process variability

glatiramer acetate [GA]
AVG expression D8ERTD82E (probe ILMN_2731237): 8.974
AVG expression MYO1F (probe ILMN_2731760): 8.593
AVG expression CDC42EP3 (probe ILMN_2733185): 8.258
AVG expression TLR2 (probe ILMN_2733733): 8.191
AVG expression IL4I1 (probe ILMN_2733778): 13.39
AVG expression CD1D1 (probe ILMN_2734212): 8.262
AVG expression RAMP1 (probe ILMN_2734391): 7.212
AVG expression ISG20 (probe ILMN_2735615): 8.139
AVG expression IL4RA (probe ILMN_2738433): 6.897
AVG expression PDE2A (probe ILMN_2740407): 6.704
AVG expression NDRG3 (probe ILMN_2740628): 7.26
AVG expression IL17F (probe ILMN_2741201): 9.282
AVG expression NUPR1 (probe ILMN_2742042): 7.513
AVG expression CSRP3 (probe ILMN_2742068): 7.26
AVG expression SERPINA3F (probe ILMN_2742861): 9.63
AVG expression MATK (probe ILMN_2743902): 6.954
AVG expression GADD45G (probe ILMN_2744890): 10.65
AVG expression DOCK10 (probe ILMN_2749063): 7.866
AVG expression CSF2 (probe ILMN_2749412): 7.94
AVG expression SPATA13 (probe ILMN_2751037): 10.49
AVG expression 4931429111RIK (probe ILMN_2751111): 6.944
AVG expression PHXR4 (probe ILMN_2751603): 8.973
AVG expression 2210010N04RIK (probe ILMN_2752436): 7.364
AVG expression TGTP (probe ILMN_2754158): 7.894
AVG expression LTF (probe ILMN_2754364): 8.257
AVG expression CD84 (probe ILMN_2754698): 9.661
AVG expression FFAR2 (probe ILMN_2756046): 9.337
AVG expression D7BWG0611E (probe ILMN_2756438): 6.424
AVG expression ENO3 (probe ILMN_2757569): 8.71
AVG expression BC031353 (probe ILMN_2757807): 9.011
AVG expression PRTN3 (probe ILMN_2758029): 6.472
AVG expression SYPL (probe ILMN_2758720): 11.58
AVG expression TMEM66 (probe ILMN_2758878): 8.06
AVG expression CLIC4 (probe ILMN_2761109): 11.63
AVG expression LOC100041103 (probe ILMN_2761720): 7.612
AVG expression TBX21 (probe ILMN_2762983): 8.48
AVG expression BC032203 (probe ILMN_2763739): 10.17
AVG expression ASB2 (probe ILMN_2765759): 8.795
AVG expression CAMP (probe ILMN_2766604): 8.176
AVG expression OCIAD2 (probe ILMN_2766875): 6.716
AVG expression ATP1B1 (probe ILMN_2767615): 7.592
AVG expression IFI30 (probe ILMN_2767918): 10.97
AVG expression PIK3IP1 (probe ILMN_2769772): 7.746
AVG expression TIMP1 (probe ILMN_2769918): 6.577
AVG expression LOC100044439 (probe ILMN_2770066): 9.229
AVG expression IGH-VJ558 (probe ILMN_2772264): 10.58
AVG expression GLIPR2 (probe ILMN_2773900): 10.63
AVG expression HSD11B1 (probe ILMN_2774160): 8.176
AVG expression STFA1 (probe ILMN_2774410): 8.3801
AVG expression HIST1H1C (probe ILMN_2774537): 8.165
AVG expression SPO11 (probe ILMN_2777019): 6.908
AVG expression GCAT (probe ILMN_2777696): 8.955
AVG expression H2-DMA (probe ILMN_2777769): 12.53
AVG expression LTA (probe ILMN_2780247): 8.582
AVG expression CSRP3 (probe ILMN_2789650): 7.602
AVG expression CD177 (probe ILMN_2789900): 6.628
AVG expression IFNG (probe ILMN_2791459): 9.711
AVG expression RFTN2 (probe ILMN_2795178): 7.218
AVG expression IL12RB1 (probe ILMN_2799452): 7.405
AVG expression S100A9 (probe ILMN_2803674): 11.05
AVG expression TMEM108 (probe ILMN_2804559): 7.473
AVG expression PRM1 (probe ILMN_2806549): 6.894
AVG expression ACOT7 (probe ILMN_2807084): 9.352
AVG expression 3110001A13RIK (probe ILMN_2807335): 8.958
AVG expression PPIC (probe ILMN_2810882): 8.651
AVG expression LBH (probe ILMN_2816180): 11.09
AVG expression CPNE4 (probe ILMN_2818246): 7.052
AVG expression DUSP10 (probe ILMN_2818964): 8.287
AVG expression SC4MOL (probe ILMN_2823778): 9.801
AVG expression USP28 (probe ILMN_2828768): 7.665
AVG expression C330023M02RIK (probe ILMN_2833243): 9.988
AVG expression C330023M02RIK (probe ILMN_2833248): 8.672
AVG expression BRWD1 (probe ILMN_2834573): 7.683
AVG expression EG634650 (probe ILMN_2837493): 6.736
AVG expression ACTN1 (probe ILMN_2844996): 9.845
AVG expression PSAP (probe ILMN_2845080): 11.88
AVG expression KLHDC2 (probe ILMN_2845272): 12.06
AVG expression ACTB (probe ILMN_2846865): 9.645
AVG expression HIF1A (probe ILMN_2852034): 7.906
AVG expression TSPAN32 (probe ILMN_2852672): 9.543
AVG expression HIST1H1C (probe ILMN_2855315): 8.506
AVG expression GPR114 (probe ILMN_2856926): 9.59
AVG expression GBP6 (probe ILMN_2860645): 9.559
AVG expression GBP6 (probe ILMN_2860649): 8.264
AVG expression RHOD (probe ILMN_2862379): 6.304
AVG expression FCER1A (probe ILMN_2863390): 7.15
AVG expression OTTMUSG00000000971 (probe ILMN_2864309): 7.999
AVG expression CD83 (probe ILMN_2865016): 12.24
AVG expression GLDC (probe ILMN_2873750): 6.771
AVG expression LYZ (probe ILMN_2878071): 10.5
AVG expression TMEM66 (probe ILMN_2881296): 9.558
AVG expression LRRK2 (probe ILMN_2883267): 9.942
AVG expression PIRA3 (probe ILMN_2883326): 7.604
AVG expression CCR5 (probe ILMN_2888191): 7.88
AVG expression NSG2 (probe ILMN_2890515): 6.466
AVG expression RGS1 (probe ILMN_2897891): 8.707
AVG expression ATP2A3 (probe ILMN_2900462): 10.34
AVG expression GM484 (probe ILMN_2903169): 7.045
AVG expression GADD45G (probe ILMN_2903945): 12.68
AVG expression ICOS (probe ILMN_2906430): 9.445
AVG expression FCGRT (probe ILMN_2917497): 7.496
AVG expression SCD2 (probe ILMN_2919259): 7.493
AVG expression SLC25A1 (probe ILMN_2919263): 9.787
AVG expression OSM (probe ILMN_2919411): 9.631
AVG expression CASP6 (probe ILMN_2923865): 9.522
AVG expression MPO (probe ILMN_2925094): 6.333
AVG expression SIGLECH (probe ILMN_2928599): 6.936
AVG expression 9130211I03RIK (probe ILMN_2930552): 7.36
AVG expression IL4 (probe ILMN_2931334): 8.425
AVG expression TPI1 (probe ILMN_2932359): 11.19
AVG expression LYZS (probe ILMN_2939681): 6.97
AVG expression DGKA (probe ILMN_2940446): 10.5
AVG expression 4933439C20RIK (probe ILMN_2944601): 9.853
AVG expression HP (probe ILMN_2944824): 8.175
AVG expression RAgenericEF4 (probe ILMN_2945940): 7.203
AVG expression CBX7 (probe ILMN_2947234): 7.729
AVG expression ECM1 (probe ILMN_2947526): 10.05
AVG expression NOC4L (probe ILMN_2957862): 9.678
AVG expression CYP27A1 (probe ILMN_2960108): 6.166
AVG expression CYP27A1 (probe ILMN_2960114): 6.441
AVG expression H2-M2 (probe ILMN_2964185): 6.649
AVG expression CREM (probe ILMN_2964986): 7.2
AVG expression FXYD5 (probe ILMN_2967266): 11.61
AVG expression AMPD1 (probe ILMN_2971142): 6.076
AVG expression FCRLA (probe ILMN_2971171): 10.49
AVG expression BLK (probe ILMN_2976440): 10.05
AVG expression BLK (probe ILMN_2976441): 10.82
AVG expression MAN2A2 (probe ILMN_2977791): 6.779
AVG expression TMED8 (probe ILMN_2979248): 8.811
AVG expression D12ERTD553E (probe ILMN_2983525): 9.137
AVG expression EMP3 (probe ILMN_2984744): 11.52
AVG expression SLC15A3 (probe ILMN_2987709): 10.2
AVG expression STFA1 (probe ILMN_2988931): 7.963
AVG expression CLEC4N (probe ILMN_2993314): 7.76
AVG expression OBFC2A (probe ILMN_2996904): 7.798
AVG expression IL27RA (probe ILMN_3002095): 10.52
AVG expression UNC84B (probe ILMN_3004864): 10.87
AVG expression PPA1 (probe ILMN_3005441): 12.45
AVG expression ASNS (probe ILMN_3006123): 7.885
AVG expression MLKL (probe ILMN_3006767): 8.575
AVG expression ABHD14B (probe ILMN_3007862): 7.744
AVG expression FAM169B (probe ILMN_3014674): 10.41
AVG expression CYP4F18 (probe ILMN_3018445): 6.343
AVG expression KIF1B (probe ILMN_3034877): 7.209
AVG expression GBP2 (probe ILMN_3047389): 7.888
AVG expression GLIPR2 (probe ILMN_3053593): 11.06
AVG expression WARS (probe ILMN_3077377): 7.701
AVG expression AHNAK (probe ILMN_3079919): 7.509
AVG expression CYP4F18 (probe ILMN_3090207): 7.952
AVG expression PKIB (probe ILMN_3094853): 9.029
AVG expression TNFRSF9 (probe ILMN_3103746): 8.744
AVG expression TIMP1 (probe ILMN_3103896): 6.734
AVG expression CETN4 (probe ILMN_3105936): 7.334
AVG expression TXNIP (probe ILMN_3112873): 10.81
AVG expression HSD11B1 (probe ILMN_3115917): 8.516
AVG expression CHI3L3 (probe ILMN_3117876): 7.418
AVG expression LMNA (probe ILMN_3121891): 8.355
AVG expression GBP2 (probe ILMN_3122961): 13.72
AVG expression CD27 (probe ILMN_3128992): 10.96
AVG expression BC004728 (probe ILMN_3130403): 9.315
AVG expression BCAT1 (probe ILMN_3131478): 9.235
AVG expression USP18 (probe ILMN_3131679): 9.931
AVG expression YPEL3 (probe ILMN_3132898): 12.77
AVG expression ANXA3 (probe ILMN_3135781): 7.965
AVG expression SESN1 (probe ILMN_3136744): 9.838
AVG expression LIF (probe ILMN_3137287): 6.404
AVG expression LIF (probe ILMN_3137291): 6.545
AVG expression BTBD11 (probe ILMN_3139253): 6.574
AVG expression SEPP1 (probe ILMN_3141048): 6.844
AVG expression CXCL10 (probe ILMN_3142803): 8.707
AVG expression B3GNT8 (probe ILMN_3149776): 7.035
AVG expression NACC2 (probe ILMN_3153982): 7.11
AVG expression WARS (probe ILMN_3156343): 8.996
AVG expression SYTL3 (probe ILMN_3157081): 7.084
AVG expression PRR7 (probe ILMN_3162239): 7.209

From patent publication US20140193827A1 (TEVA PHARMACEUTICAL INDUSTRIES, LTD., priority 2013, published 2014)
